Values after ≈ are worked out from the molar mass of the structure shown. Read-outs that look alike come from different tables or passages of the source.
Assays:
S. aureus HH 127 = experiment: MIC in vitro (Table 1), S. aureus HH 127; assay type: cell-based; conditions: Staphylococcus aureus
Description: (§1) Compound names corresponding to numbers are given in the experimental section. For comparative purposes, data for cephamandole, which is 7-mandelamido-3-(1-methyltetrazol-5-ylthiomethyl)-3-cephem-4-carboxylic acid, is also given in Tables 1 and 2.

S. aureus SK 23390 = experiment: MIC in vitro (Table 1), S. aureus SK 23390; assay type: cell-based; conditions: Staphylococcus aureus
Description: as §1

Strep. Faecalis HH 34358 = experiment: MIC in vitro (Table 1), Strep. Faecalis HH 34358; assay type: cell-based; conditions: Enterococcus faecalis
Description: as §1

E. coli SK 12140 = experiment: MIC in vitro (Table 1), E. coli SK 12140; assay type: cell-based; conditions: Escherichia coli, SK12140, in vitro, read-out: MIC
Description: as §1

E. coli HH 33779 = experiment: MIC in vitro (Table 1), E. coli HH 33779; assay type: cell-based; conditions: Escherichia coli, HH33779, in vitro, E. coli HH 33779; read-out: MIC
Description: as §1

Kleb. pneumo. SK 4200 = experiment: MIC in vitro (Table 1), Kleb. pneumo. SK 4200; assay type: cell-based
Description: as §1

Kleb. pneumo. SK 1200 = experiment: MIC in vitro (Table 1), Kleb. pneumo. SK 1200; assay type: cell-based
Description: as §1

Pseudo. sp. HH 63 = experiment: MIC in vitro (Table 1), Pseudo. sp. HH 63; assay type: cell-based; conditions: in vitro, Pseudo. sp. HH 63; read-out: MIC
Description: as §1, with “The compounds of Formula I have antibacterial activity against both Gram-positive and Gram-negative organisms. […] Compound” for “Compound”

Salmonella ATCC 12176 = experiment: MIC in vitro (Table 1), Salmonella ATCC 12176; assay type: cell-based
Description: as §1, with “The compounds of Formula I have antibacterial activity against both Gram-positive and Gram-negative organisms. […] Compound” for “Compound”

Shigella HH 117 = experiment: MIC in vitro (Table 1), Shigella HH 117; assay type: cell-based; conditions: Shigella, HH117, in vitro, read-out: MIC
Description: as §1, with “The compounds of Formula I have antibacterial activity against both Gram-positive and Gram-negative organisms. […] Compound” for “Compound”

[1] = tested on: Entero. aerog. ATCC 13048; experiment: MIC in vitro (Table 1), Entero. aerog. ATCC 13048; assay type: cell-based
Description: as §1

Serra. Marc. ATCC 13880 = experiment: MIC in vitro (Table 1), Serra. Marc. ATCC 13880; assay type: cell-based
Description: as §1

Entero. cloacae HH 31254 = experiment: MIC in vitro (Table 1), Entero. cloacae HH 31254; assay type: cell-based; conditions: Enterobacter cloacae
Description: as §1

E. coli 12140 = experiment: In vivo mouse protection (Table 2), E. coli 12140
Description: as §1

Kleb. pneumo. 4200 = experiment: In vivo mouse protection (Table 2), Kleb. pneumo. 4200
Description: as §1

Proteus morgani 179 = experiment: MIC in vitro (Table 1), Proteus morgani 179; assay type: cell-based; conditions: read-out: MIC
Description: as §1

[2] = in vitro, Kleb. pneumo. SK 4200, read-out: MIC
[3] = Salmonella, ATCC12176, in vitro, read-out: MIC
[4] = HH31254, in vitro, Entero. cloacae HH 31254, read-out: MIC
[5] = Escherichia coli, 12140, sc, E. coli 12140, s.c.
[6] = HH127, in vitro, S. aureus HH 127, read-out: MIC
[7] = SK23390, in vitro, S. aureus SK 23390, read-out: MIC
[8] = in vitro, Strep. Faecalis HH 34358, read-out: MIC
[9] = in vitro, Entero. aerog. ATCC 13048, read-out: MIC
[10] = in vitro, Serra. Marc. ATCC 13880, read-out: MIC

O=C(O)CCCn1nnnc1SCC1=C(C(=O)O)N2C(=O)C(NC(=O)[C@H](O)c3ccccc3)[C@H]2SC1 (stereo partly drawn) [XII, 7-D-Mandelamido-3-[1-(3-carboxypropyl)tetrazol-5-ylthiomethyl]-3-cephem-4-carboxylic acid]
MIC (S. aureus HH 127; HH127): 3.1 µg/mL (≈ 5.8 µM)
MIC (S. aureus SK 23390; SK23390): 0.4 µg/mL (≈ 0.748 µM)
MIC (Strep. Faecalis HH 34358): 12.5 µg/mL (≈ 23.4 µM)
MIC (E. coli SK 12140): 1.6 µg/mL (≈ 2.99 µM)
MIC (E. coli HH 33779): 1.6 µg/mL (≈ 2.99 µM)
MIC (Kleb. pneumo. SK 4200; [2]): 1.6 µg/mL (≈ 2.99 µM)
MIC (Kleb. pneumo. SK 1200): 1.6 µg/mL (≈ 2.99 µM)
MIC (Kleb. pneumo. SK 1200; read-out: MIC): 0.8 µg/mL (≈ 1.5 µM)
MIC (Pseudo. sp. HH 63): > 200 µg/mL
MIC (Salmonella ATCC 12176; [3]): 0.4 µg/mL (≈ 0.748 µM)
MIC (Salmonella ATCC 12176; in vitro): 0.8 µg/mL (≈ 1.5 µM)
MIC (Shigella HH 117): 0.4 µg/mL (≈ 0.748 µM)
MIC [1]: 3.1 µg/mL (≈ 5.8 µM)
MIC (Serra. Marc. ATCC 13880): 12.5 µg/mL (≈ 23.4 µM)
MIC (Entero. cloacae HH 31254; [4]): 0.8 µg/mL (≈ 1.5 µM)
ED50 (E. coli 12140; Escherichia coli, 12140, po, E. coli 12140, p.o.): > 50 mg/kg
ED50 (E. coli 12140; [5]): 1.84 mg/kg
ED50 (Kleb. pneumo. 4200; sc, Kleb. pneumo. 4200, s.c.): 2.9 mg/kg

NC(=O)Cn1nnnc1SCC1=C(C(=O)O)N2C(=O)C(NC(=O)[C@H](N)c3ccc(O)cc3)[C@H]2SC1 (stereo partly drawn) [VI, 7-(D-α-Amino-4-hydroxyphenylacetamido) -3-(1-carbamoylmethyltetrazol-5-ylthiomethyl) -3-cephem-4-carboxylic acid]
MIC (S. aureus HH 127; [6]): 6.3 µg/mL (≈ 12.1 µM)
MIC (S. aureus SK 23390; [7]): 6.3 µg/mL (≈ 12.1 µM)
MIC (Strep. Faecalis HH 34358; [8]): 50 µg/mL (≈ 96.1 µM)
MIC (E. coli SK 12140): 6.3 µg/mL (≈ 12.1 µM)
MIC (E. coli HH 33779): 6.3 µg/mL (≈ 12.1 µM)
MIC (Kleb. pneumo. SK 4200; [2]): 12.5 µg/mL (≈ 24 µM)
MIC (Kleb. pneumo. SK 1200; read-out: MIC): 6.3 µg/mL (≈ 12.1 µM)
MIC (Pseudo. sp. HH 63): > 200 µg/mL
MIC (Salmonella ATCC 12176; [3]): 1.6 µg/mL (≈ 3.07 µM)
MIC (Shigella HH 117): 3.1 µg/mL (≈ 5.96 µM)
MIC [1, 9]: 6.3 µg/mL (≈ 12.1 µM)
MIC (Serra. Marc. ATCC 13880; [10]): 100 µg/mL (≈ 192 µM)
MIC (Entero. cloacae HH 31254; HH31254): 3.1 µg/mL (≈ 5.96 µM)
MIC (Proteus morgani 179): 50 µg/mL (≈ 96.1 µM)
ED50 (Kleb. pneumo. 4200; po, Kleb. pneumo. 4200, p.o.): 4 mg/kg
ED50 (Kleb. pneumo. 4200; sc, Kleb. pneumo. 4200, s.c.): 0.92 mg/kg

N[C@@H](C(=O)NC1C(=O)N2C(C(=O)O)=C(CSc3nnnn3CC(=O)O)CS[C@H]12)c1ccc(O)cc1 (stereo partly drawn) [II, 7-(D-α-Amino-4-hydroxyphenylacetamido)-3-(1-carboxymethyl-tetrazol-5-ylthiomethyl)-3-cephem-4-carboxylic acid]
MIC (S. aureus HH 127; [6]): 12.5 µg/mL (≈ 24 µM)
MIC (S. aureus SK 23390; [7]): 12.5 µg/mL (≈ 24 µM)
MIC (Strep. Faecalis HH 34358; [8]): 100 µg/mL (≈ 192 µM)
MIC (E. coli SK 12140): 3.1 µg/mL (≈ 5.94 µM)
MIC (E. coli HH 33779): 12.5 µg/mL (≈ 24 µM)
MIC (Kleb. pneumo. SK 4200; [2]): 1.6 µg/mL (≈ 3.07 µM)
MIC (Kleb. pneumo. SK 1200): 6.3 µg/mL (≈ 12.1 µM)
MIC (Pseudo. sp. HH 63): > 200 µg/mL
MIC (Salmonella ATCC 12176; [3]): 1.6 µg/mL (≈ 3.07 µM)
MIC (Shigella HH 117): 6.3 µg/mL (≈ 12.1 µM)
MIC [1, 9]: 25 µg/mL (≈ 47.9 µM)
MIC (Serra. Marc. ATCC 13880; [10]): > 200 µg/mL
MIC (Entero. cloacae HH 31254; [4]): 1.6 µg/mL (≈ 3.07 µM)
MIC (Proteus morgani 179): > 200 µg/mL
ED50 (Kleb. pneumo. 4200; po, Kleb. pneumo. 4200, p.o.): 13.2 mg/kg

NC(=O)CCCCCn1nnnc1SCC1=C(C(=O)O)N2C(=O)C(NC(=O)[C@H](O)c3ccccc3)[C@H]2SC1 (stereo partly drawn) [XIV, 7-D-Mandelamido-3-[1-(5-carbamoylpentyl)tetrazol-5-ylthiomethyl]-3-cephem-4-carboxylic acid]
MIC (S. aureus HH 127; [6]): 1.6 µg/mL (≈ 2.85 µM)
MIC (S. aureus SK 23390; SK23390): 0.4 µg/mL (≈ 0.712 µM)
MIC (Strep. Faecalis HH 34358): 12.5 µg/mL (≈ 22.3 µM)
MIC (E. coli SK 12140): 3.1 µg/mL (≈ 5.52 µM)
MIC (E. coli HH 33779): 3.1 µg/mL (≈ 5.52 µM)
MIC (Kleb. pneumo. SK 4200; [2]): 1.6 µg/mL (≈ 2.85 µM)
MIC (Kleb. pneumo. SK 1200; read-out: MIC): 3.1 µg/mL (≈ 5.52 µM)
MIC (Pseudo. sp. HH 63): > 200 µg/mL
MIC (Salmonella ATCC 12176; [3]): 3.1 µg/mL (≈ 5.52 µM)
MIC (Shigella HH 117): 0.8 µg/mL (≈ 1.42 µM)
MIC [1, 9]: 6.3 µg/mL (≈ 11.2 µM)
MIC (Serra. Marc. ATCC 13880): 25 µg/mL (≈ 44.5 µM)
MIC (Entero. cloacae HH 31254; [4]): 1.6 µg/mL (≈ 2.85 µM)
ED50 (E. coli 12140; [5]): 1.1 mg/kg
ED50 (Kleb. pneumo. 4200; sc, Kleb. pneumo. 4200, s.c.): 1.1 mg/kg

O=C(O)CCCCCn1nnnc1SCC1=C(C(=O)O)N2C(=O)C(NC(=O)[C@H](O)c3ccccc3)[C@H]2SC1 (stereo partly drawn) [XIII, 7-D-Mandelamido-3-[1-(5-carboxypentyl)tetrazol-5-ylthiomethyl]-3-cephem-4-carboxylic acid]
MIC (S. aureus HH 127; [6]): 3.1 µg/mL (≈ 5.51 µM)
MIC (S. aureus SK 23390; SK23390): 0.8 µg/mL (≈ 1.42 µM)
MIC (Strep. Faecalis HH 34358; [8]): 25 µg/mL (≈ 44.4 µM)
MIC (E. coli SK 12140): 1.6 µg/mL (≈ 2.84 µM)
MIC (E. coli HH 33779): 3.1 µg/mL (≈ 5.51 µM)
MIC (Kleb. pneumo. SK 4200): 0.8 µg/mL (≈ 1.42 µM)
MIC (Kleb. pneumo. SK 1200; read-out: MIC): 1.6 µg/mL (≈ 2.84 µM)
MIC (Pseudo. sp. HH 63): > 200 µg/mL
MIC (Salmonella ATCC 12176; [3]): 1.6 µg/mL (≈ 2.84 µM)
MIC (Shigella HH 117): 0.8 µg/mL (≈ 1.42 µM)
MIC [1, 9]: 6.3 µg/mL (≈ 11.2 µM)
MIC (Entero. cloacae HH 31254; HH31254): 0.8 µg/mL (≈ 1.42 µM)
MIC (Proteus morgani 179): 1.6 µg/mL (≈ 2.84 µM)
ED50 (E. coli 12140; [5]): 1.56 mg/kg
ED50 (Kleb. pneumo. 4200; sc, Kleb. pneumo. 4200, s.c.): 0.54 mg/kg

Reference: patent publication US4220644A, “7-Acylamino-3-(substituted tetrazolyl thiomethyl) cephalosporins” (SmithKline Corporation, priority 1976, dated 1980)
